Assay results taken from US9115143B2, “Substituted indole derivatives as gamma secretase modulators” (Janssen Pharmaceuticals, Inc., priority 2011, dated 2015).

Assays:
[1] = system: Aβ40; test: In vivo efficacy B-1b/B-2b: brain soluble Aβ40, MSD electrochemiluminescence multiplex; conditions: mouse brain soluble fraction, dose 30 mg/kg oral dosing, 4 h after dose; untreated control set at 100; read-out: Aβ40 (% vs Ctrl)_Mean
From the text: (§1) To determine whether acute administration of an Aβ42 lowering agent would reduce Aβ42 levels in vivo, non-transgenic rodents, e.g. mice or rats were used. Animals treated with the Aβ42 lowering agent were examined and compared to those untreated or treated with vehicle and brain levels of soluble Aβ42, Aβ40, Aβ38, and Aβ37 were quantitated by Meso Scale Discovery's (MSD) electrochemiluminescence detection technology. Treatment periods varied from hours (h) to days and were adjusted based on the results of the Aβ42 lowering once a time course of onset of effect could be established.
(§2) A typical protocol for measuring Aβ42 lowering in vivo is shown but it is only one of many variations that could be used to optimize the levels of detectable Aβ. For example, Aβ42 lowering compounds were formulated in 20% of Captisol® (a sulfobutyl ether of β-cyclodextrin) in water or 20% hydroxypropyl β cyclodextrin. The Aβ42 lowering agents were administered as a single oral dose or by any acceptable route of administration to overnight fasted animals. After 4 h, the animals were sacrificed and Aβ42 levels were analysed.
(§3) Blood was collected by decapitation and exsanguinations in EDTA-treated collection tubes. Blood was centrifuged at 1900 g for 10 minutes (min) at 4° C. and the plasma recovered and flash frozen for later analysis. The brain was removed from the cranium and hindbrain. The cerebellum was removed and the left and right hemisphere were separated. The left hemisphere was stored at −18° C. for quantitative analysis of test compound levels. The right hemisphere was rinsed with phosphate-buffered saline (PBS) buffer and immediately frozen on dry ice and stored at −80° C. until homogenization for biochemical assays.
(§4) Mouse brains from non-transgenic animals were resuspended in 8 volumes of 0.4% DEA (diethylamine)/50 mM NaCl containing protease inhibitors (Roche-11873580001 or 04693159001) per gram of tissue, e.g. for 0.158 g brain, add 1.264 ml of 0.4% DEA. All samples were homogenized in the FastPrep-24 system (MP Biomedicals) using lysing matrix D (MPBio #6913-100) at 6 m/s for 20 seconds. Homogenates were centrifuged at 20800×g for 5 min and supernatants collected. Supernatants were centrifuged at 221.300×g for 50 min. The resulting high speed supernatants were then transferred to fresh eppendorf tubes. Nine parts of supernatant were neutralized with 1 part 0.5 M Tris-HCl pH 6.8 and used to quantify Aβ.
(§5) To quantify the amount of Aβ42, Aβ40, Aβ38, and Aβ37 in the soluble fraction of the brain homogenates, simultaneous specific detection of Aβ42, Aβ40, Aβ38, and Aβ37 was performed using MSD's electro-chemiluminescence multiplex detection technology. In this assay purified monoclonal antibodies specific for Abeta37 (JRD/Aβ37/3), Abeta38 (J&JPRD/Aβ38/5), Abeta40 (JRF/cAβ40/28), and Abeta42 (JRF/cAβ42/26) were coated on MSD 4-plex plates. Briefly, the standards (a dilution of synthetic Aβ42, Aβ40, Aβ38, and Aβ37) were prepared in 1.5 ml Eppendorf tube in Ultraculture, with final concentrations ranging from 10000 to 0.3 pg/m. The samples and standards were co-incubated with Sulfo-tag labelled JRF/rAβ/2 antibody to the N-terminus of Aβ as detector antibody. 50 μl of conjugate/sample or conjugate/standards mixtures were then added to the antibody-coated plate. The plate was allowed to incubate overnight at 4° C. in order to allow formation of the antibody-amyloid complex. Following this incubation and subsequent wash steps the assay was finished by adding read buffer according to the manufacturer's instructions (Meso Scale Discovery, Gaitherburg, Md.).
(§6) The SULFO-TAG emits light upon electrochemical stimulation initiated at the electrode. MSD Sector instrument SI6000 was used for signal read-out.
The results are shown in Table 5 (dose 30 mg/kg oral dosing) (value for untreated animals as control (Ctrl) was set at 100): […]

[2] = system: Aβtotal; test: Screening for γ-secretase-modulating activity: Aβtotal in supernatant of SKNBE2 cells carrying hAPP 695 wild type (Alphalisa); assay type: cell-based, human; conditions: overnight incubation, Alphalisa on supernatant
In short: (§7)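 SKNBE2 human neuroblastoma cells expressing wild-type hAPP 695 (10^4/well) were incubated overnight at 37 °C, 5% CO2 with compound at several concentrations. Supernatant Aβ42 and Aβtotal measured by AlphaLISA sandwich immunoassays; IC50 from 4-parameter fit of percent of untreated control versus log concentration.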

[3] = system: Aβ42; test: In vivo efficacy B-1b: brain soluble Aβ42, MSD electrochemiluminescence multiplex; conditions: mouse brain soluble fraction, dose 30 mg/kg oral dosing, 4 h after dose; untreated control set at 100; read-out: Aβ42 (% vs Ctrl)_Mean
From the text: as §1, §2, §3, §4, §5, §6
In this model a Aβ42 lowering compared to untreated animals would be advantageous, in particular a Aβ42 lowering with at least 10%, more in particular a Aβ42 lowering with at least 20%. […]

[4] = system: Aβ38; test: In vivo efficacy B-2b: brain soluble Aβ38, MSD electrochemiluminescence multiplex; conditions: mouse brain soluble fraction, dose 30 mg/kg oral dosing, 4 h after dose; untreated control set at 100; read-out: Aβ38 (% vs Ctrl)_Mean
From the text: as §1, with “Aβ38 increasing agents” for “Aβ42 lowering agent”, “increase Aβ38” for “reduce Aβ42”, “MSD” for “Meso Scale Discovery's (MSD)”, “Aβ38 increase” for “Aβ42 lowering”
as §2, with “measuring Aβ38 increase” for “measuring Aβ42 lowering”, “example, Aβ38 increasing agents” for “example, Aβ42 lowering compounds”, “The Aβ38 increasing” for “The Aβ42 lowering”, “and Aβ38” for “and Aβ42”
as §3, §4, §5, §6
In this model a Aβ38 increase compared to untreated animals would be advantageous, in particular a Aβ38 increase with at least 10%, more in particular a Aβ38 increase with at least 20%. […]

[5] = system: Aβ42; test: Screening for γ-secretase-modulating activity: Aβ42 in supernatant of SKNBE2 cells carrying hAPP 695 wild type (Alphalisa); assay type: cell-based, human; conditions: overnight incubation, Alphalisa on supernatant
In short: as §7

[6] = Homo sapiens, SKNBE2, SKNBE2 human neuroblastoma cells carrying hAPP 695 wild type
[7] = SKNBE2 human neuroblastoma cells carrying hAPP 695 wild type

IC50 [2, 6]	IC50 [5, 7]	IC50 [2, 7]	melting point	IC50 [5, 6]	Compound	response vs control in vivo at 30 mg/kg [1]	response vs control in vivo at 30 mg/kg [3]	response vs control in vivo at 30 mg/kg [4]
–	35 nM	> 10000 nM	–	–	COc1c(C#N)ccc2[nH]c(-c3nc4n(n3)CCCOC4c3ccc(F)cc3C)cc12 (stereo not drawn) [Compound 53, 2-[9-(4-fluoro-2-methylphenyl)-6,7-dihydro-5H,9H-[1,2,4]triazolo[5,1-c][1,4]oxazepin-2-yl]-4-methoxy-1H-indole-5-carbonitrile]	79%	74%	78%
> 10000 nM	21 nM	–	–	–	COc1c(C#N)ccc2[nH]c(-c3cn4c(n3)C(c3ccccc3C(F)(F)F)OCC4)cc12 (single isomer, unassigned) [Compound 44, 2-[5,6-dihydro-8-[2-(trifluoromethyl)phenyl]-8H-imidazo[2,1-c][1,4]oxazin-2-yl]-4-methoxy-1H-indole-5-carbonitrile]	31%	27%	110%
> 10000 nM	–	–	297.5 °C	48 nM	Cc1cn(-c2ccc3[nH]c(-c4nc5n(n4)CCOC5c4ccc(F)cc4C(C)C)cc3c2)cn1 (stereo not drawn) [Compound 100, 8-[4-fluoro-2-(1-methylethyl)phenyl]-5,6-dihydro-2-[5-(4-methyl-1H-imidazol-1-yl)-1H-indol-2-yl]-8H-[1,2,4]triazolo[5,1-c][1,4]oxazine]	–	–	–
–	85 nM	> 10000 nM	267.3 °C	–	COc1c(C#N)ccc2[nH]c(-c3nc4n(n3)CCOC4c3ccc(F)c(Cl)c3)cc12 (stereo not drawn) [Compound 156, 2-[8-(3-chloro-4-fluorophenyl)-5,6-dihydro-8H-[1,2,4]triazolo[5,1-c][1,4]oxazin-2-yl]-4-methoxy-1H-indole-5-carbonitrile]	–	–	–
–	1620 nM	> 10000 nM	296.2 °C	–	COc1c(C#N)ccc2[nH]c(-c3cn4c(n3)C(c3c(C)cccc3F)OCC4)cc12 (stereo not drawn) [Compound 139, 2-[8-(2-fluoro-6-methylphenyl)-5,6-dihydro-8H-imidazo[2,1-c][1,4]oxazin-2-yl]-4-methoxy-1H-indole-5-carbonitrile]	–	–	–
> 10000 nM	–	–	287.1 °C	138 nM	COc1c(C#N)ccc2[nH]c(-c3nc4n(n3)CCCC4(O)c3ccc(F)cc3C)cc12 (stereo not drawn) [Compound 60, 2-[8-(4-fluoro-2-methylphenyl)-5,6,7,8-tetrahydro-8-hydroxy[1,2,4]triazolo[1,5-a]pyridin-2-yl]-4-methoxy-1H-indole-5-carbonitrile]	–	–	–
> 15100 nM	–	–	183 °C	4790 nM	COc1ccc2[nH]c(-c3nc4n(n3)CCCC4c3ccccc3C(F)(F)F)cc2c1 (stereo not drawn) [Compound 29, 5,6,7,8-tetrahydro-2-(5-methoxy-1H-indol-2-yl)-8-[2-(trifluoromethyl)phenyl]-[1,2,4]triazolo[1,5-a]pyridine]	–	–	–

Continued, molecule first:

Compound	IC50 [2, 6]	IC50 [5, 7]	IC50 [2, 7]	melting point	IC50 [5, 6]	response vs control in vivo at 30 mg/kg [1]	response vs control in vivo at 30 mg/kg [3]	response vs control in vivo at 30 mg/kg [4]
COc1c(C#N)ccc2[nH]c(-c3nc4n(n3)CCOC4c3cccc(F)c3C(F)(F)F)cc12 (single isomer, unassigned) [Compound 133, 2-[8-[3-fluoro-2-(trifluoromethyl)phenyl]-5,6-dihydro-8H-[1,2,4]triazolo[5,1-c][1,4]oxazin-2-yl]-4-methoxy-1H-indole-5-carbonitrile]	> 10000 nM	59 nM	–	–	–	107%	98%	119%
COc1c(C#N)ccc2[nH]c(-c3cn4c(n3)C(c3cc(C(F)(F)F)ccc3F)OCC4)cc12 (stereo not drawn) [Compound 164, 2-[8-[2-fluoro-5-(trifluoromethyl)phenyl]-5,6-dihydro-8H-imidazo[2,1-c][1,4]oxazin-2-yl]-4-methoxy-1H-indole-5-carbonitrile]	–	41 nM	> 10000 nM	–	–	81%	65%	141%
COc1c(C#N)ccc2[nH]c(-c3cn4c(n3)C(c3cccc(F)c3C)OCC4)cc12 (stereo not drawn) [Compound 41, 2-[8-(3-fluoro-2-methylphenyl)-5,6-dihydro-8H-imidazo[2,1-c][1,4]oxazin-2-yl]-4-methoxy-1H-indole-5-carbonitrile]	–	20 nM	> 10000 nM	–	–	35%	34%	140%
COc1c(C#N)ccc2[nH]c(-c3cn4c(n3)C(c3c(F)cccc3C(F)(F)F)OCC4)cc12 (stereo not drawn) [Compound 153, 2-[8-[2-fluoro-6-(trifluoromethyl)phenyl]-5,6-dihydro-8H-imidazo[2,1-c][1,4]oxazin-2-yl]-4-methoxy-1H-indole-5-carbonitrile]	–	36 nM	> 10000 nM	–	–	76%	60%	236%
N#Cc1ccc2[nH]c(-c3nc4n(n3)CCCC4c3cc(C(F)(F)F)ccc3F)cc2c1 (stereo not drawn) [Compound 21, 2-[8-[2-fluoro-5-(trifluoromethyl)phenyl]-5,6,7,8-tetrahydro[1,2,4]triazolo[1,5-a]pyridin-2-yl]-1H-indole-5-carbonitrile]	> 10000 nM	–	–	184.3 °C	355 nM	–	–	–
Cc1cc(F)ccc1C1OCCn2nc(-c3cc4cc(C#N)ccc4[nH]3)nc21 (single isomer, unassigned) [Compound 98, 2-[8-(4-fluoro-2-methylphenyl)-5,6-dihydro-8H-[1,2,4]triazolo[5,1-c][1,4]oxazin-2-yl]-1H-indole-5-carbonitrile]	–	5500 nM	> 10000 nM	253.5 °C	–	–	–	–
